From article PMC4291223, “Inhibitors of CLK Protein Kinases Suppress Cell Growth and Induce Apoptosis by Modulating Pre-mRNA Splicing” (PLoS ONE, 2015)

Assays:
CLK2 [1] = target: T1, CLK2 (Homo sapiens, UniProt P49760); experiment: Kinase panel assay (Z'-LYTE, SelectScreen), CLK2 among 28 kinases; type: biochemical; conditions: 100 and 1000 nM
T1 construct: purchased Life Technologies
Procedure: Kinase panel assays were performed using the FRET-based Z’- LYTE enzymatic kinase assay system (Life Technologies, Carlsbad, CA), which was carried out using the SelectScreen Kinase Profiling Service (Life Technologies). The standard reaction contained 2 μM peptide substrate, 100 μM ATP, 50 mM HEPES (pH 7.5), 0.01% Brij-35, 10 mM MgCl2, 1 mM EGTA, and each kinase. Cpd-1, Cpd-2, and Cpd-3 at two point concentration (100 and 1000 nM) with duplicate data points (n = 2) were assayed following the detailed procedures outlined in the SelectScreen. The full assay protocol and conditions can be obtained at www.lifetechnologies.com. Percent inhibition represents a ratio of phosphorylated product formed in the presence of the compound compared with phosphorylated product formed in reactions containing 1% DMSO. Inhibition data indicates the mean value of kinase inhibition from duplicate data.

HCT-116 cells = experiment: Cell viability assay, HCT-116; type: cell-based; conditions: Homo sapiens; HCT-116 colorectal cancer
SRPK2 = target: T2, SRPK2 (Homo sapiens, UniProt P78362); experiment: In vitro kinase assay (ADP-Glo), SRPK2; type: biochemical; conditions: 5 µM ATP
T2 construct: purchased Millipore
T2 sequence (P78362 whole entry): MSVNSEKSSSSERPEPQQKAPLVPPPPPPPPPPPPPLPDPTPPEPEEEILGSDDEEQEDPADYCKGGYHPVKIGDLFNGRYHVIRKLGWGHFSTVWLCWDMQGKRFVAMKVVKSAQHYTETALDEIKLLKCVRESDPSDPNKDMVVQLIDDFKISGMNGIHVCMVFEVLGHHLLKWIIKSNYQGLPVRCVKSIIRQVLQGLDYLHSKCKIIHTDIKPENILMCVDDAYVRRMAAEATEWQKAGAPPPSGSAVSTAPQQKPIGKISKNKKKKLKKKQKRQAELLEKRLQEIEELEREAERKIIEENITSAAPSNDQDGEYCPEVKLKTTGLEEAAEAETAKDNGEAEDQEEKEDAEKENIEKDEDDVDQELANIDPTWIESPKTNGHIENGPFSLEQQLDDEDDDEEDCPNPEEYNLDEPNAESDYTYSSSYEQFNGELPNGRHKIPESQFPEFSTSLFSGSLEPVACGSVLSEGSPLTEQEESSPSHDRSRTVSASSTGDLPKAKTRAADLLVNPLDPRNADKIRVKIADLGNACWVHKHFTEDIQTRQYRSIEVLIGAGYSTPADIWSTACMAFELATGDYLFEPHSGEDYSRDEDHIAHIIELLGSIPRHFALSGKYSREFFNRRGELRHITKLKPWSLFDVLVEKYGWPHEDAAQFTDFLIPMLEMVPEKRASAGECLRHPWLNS
Procedure: (§1) The ATP concentration for each assay was adjusted to the Km for each kinase. Kinase assays for SRPK1–3 and CLK1 were performed using the ADP-Glo™ assay (Promega, Madison, WI). The kinase buffer contained 25 mM HEPES (pH 7.5), 10 mM magnesium acetate, 1 mM DTT, 0.01% BSA, and 0.01% Tween-20. The reaction mixtures contained 50 ng/mL SRPK1, 100 ng/mL SRPK2 or SRPK3, or 300 ng/mL CLK1 and 3 μM substrate peptide [GRSRSRSRSRSRSRSR] (Thermo Scientific). After incubating the enzyme, peptide, and compounds for 10 min, kinase reactions were initiated by adding ATP to a final concentration of 5 µM, followed by incubation for 30 min (15 min for SRPK1). The kinase reactions were terminated by adding ADP-Glo™ reagent (Promega). ADP was detected using a kinase detection reagent (Promega). The kinase activity of CLK2 was measured using the LANCE® Ultra assay (Perkin-Elmer, Waltham, MA) with ADP-Glo assay buffer. The reaction mixtures contained 100 ng/mL CLK2 and 50 nM ULight™-myelin basic protein (MBP) peptide (Perkin-Elmer). After incubating the enzyme, peptide, and compounds for 5 min, kinase reactions were initiated by adding ATP to a final concentration of 20 μM, followed by incubation for 30 min. The enzyme reactions were terminated by adding 30 mM EDTA, and phosphorylated ULight-MBP peptides were detected using a europium-labeled anti-phospho-MBP antibody diluted with detection buffer (Perkin-Elmer). The plates were read using an EnVision 2102 multilabel reader (Perkin-Elmer). We defined the absorbance of the reaction without enzyme as 100% inhibitory activity and that of the complete reaction mixture as 0% inhibitory activity. The IC50 values were estimated using the “Sigmoidal dose-response (variable slope)” equation in GraphPad Prism 5 software (GraphPad Software, San Diego, CA), with the maximum and minimum of the curve constrained to 100 and 0, respectively.

CLK2 [2] = target: T1, CLK2; experiment: In vitro kinase assay (LANCE Ultra), CLK2; type: biochemical; conditions: for IC50: 20 µM ATP; for activity for CLK2 relative to Cpd-1: stronger than Cpd-1
Procedure: as §1

[3] = system: nuclear speckles in MDA-MB-468 cells; experiment: Immunofluorescence of nuclear speckles (anti-SC35); type: cell-based, human; conditions: MDA-MB-468, 6 h, anti-SC35 antibody
Procedure: MDA-MB-468 cells were fixed with 4% paraformaldehyde for 30 min at room temperature, washed with PBS, blocked with 5% BSA in PBS, incubated with an anti-SC35 antibody (Abcam, Cambridge, UK) for 1 h at room temperature, and incubated with a secondary antibody for 1 h. The cells were mounted and counterstained with DAPI (Vector Laboratories, Burlingame, CA) and detected using fluorescence microscopy.

SRPK1 = target: T3, SRPK1 (Homo sapiens, UniProt Q96SB4); experiment: In vitro kinase assay (ADP-Glo), SRPK1; type: biochemical; conditions: 5 µM ATP
T3 construct: Full-length human recombinant SRPK1 with a FLAG tag linked to the N-terminus (FLAG-hSRPK1); FLAG (N); made in house; host or cells: Sf9 cells (baculovirus, Bac-to-Bac)
T3 sequence (Q96SB4 whole entry): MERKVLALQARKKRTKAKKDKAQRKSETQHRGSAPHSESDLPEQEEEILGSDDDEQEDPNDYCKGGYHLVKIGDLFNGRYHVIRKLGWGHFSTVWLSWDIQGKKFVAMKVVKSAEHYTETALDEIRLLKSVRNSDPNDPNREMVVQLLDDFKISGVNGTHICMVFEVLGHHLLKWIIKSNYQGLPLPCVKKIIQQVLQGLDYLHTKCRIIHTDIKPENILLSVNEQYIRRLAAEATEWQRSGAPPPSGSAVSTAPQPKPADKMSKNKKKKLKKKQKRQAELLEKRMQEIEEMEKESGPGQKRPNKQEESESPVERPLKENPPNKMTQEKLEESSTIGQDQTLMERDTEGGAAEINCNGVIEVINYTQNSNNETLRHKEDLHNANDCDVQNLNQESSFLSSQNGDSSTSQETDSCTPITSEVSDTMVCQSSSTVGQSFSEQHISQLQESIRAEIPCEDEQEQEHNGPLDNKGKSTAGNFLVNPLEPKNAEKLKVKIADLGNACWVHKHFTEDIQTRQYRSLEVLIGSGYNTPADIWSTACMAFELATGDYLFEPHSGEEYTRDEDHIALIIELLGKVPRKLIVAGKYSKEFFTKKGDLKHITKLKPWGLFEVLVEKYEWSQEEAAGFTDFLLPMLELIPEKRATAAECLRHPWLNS
Procedure: Full-length human recombinant SRPK1 with a FLAG tag linked to the N-terminus (FLAG-hSRPK1) was prepared using a baculovirus expression system. The recombinant baculovirus used to express FLAG-hSRPK1 was constructed according to the protocol provided with the Bac-to-Bac Baculovirus Expression System (Invitrogen, Carlsbad, CA). Sf9 cells were infected with the amplified recombinant baculovirus, cultured at 27°C for 3 days, harvested, and stored at −80°C. The frozen cells were suspended in lysis buffer [50 mM Tris-HCl pH 7.5, 150 mM NaCl, 10% (w/v) glycerol, 1 mM DTT, and complete protease inhibitor cocktail (Roche, Basel, Switzerland)], sonicated for 1 min, and centrifuged at 15,000 × g for 30 min. The soluble fraction was applied to an anti-FLAG M2 affinity gel (Sigma-Aldrich, St. Louis, MO), and FLAG-hSRPK1 was eluted with elution buffer [50 mM Tris-HCl pH 7.5, 10% (w/v) glycerol, 1 mM DTT, and 0.1 mg/mL FLAG peptide]. FLAG-hSRPK1 was further purified by anion exchange chromatography (MonoQ 5/50 GL; GE Healthcare, Piscataway, NJ) and gel filtration chromatography (HiLoad 26/60 Superdex 200 pg; GE Healthcare). Protein concentration was measured using BCA protein assay reagents (Thermo Scientific, Pittsburgh, PA). CLK1 and CLK2 were purchased from Life Technologies (Carlsbad, CA) and SRPK2 and SRPK3 were obtained from Millipore (Billerica, MA).
The ATP concentration for each assay was adjusted to the Km for each kinase. […] ADP was detected using a kinase detection reagent (Promega). The kinase activity of CLK2 was measured using the LANCE® Ultra assay (Perkin-Elmer, Waltham, MA) with ADP-Glo assay buffer. […] The enzyme reactions were terminated by adding 30 mM EDTA, and phosphorylated ULight-MBP peptides were detected using a europium-labeled anti-phospho-MBP antibody diluted with detection buffer (Perkin-Elmer). The plates were read using an EnVision 2102 multilabel reader (Perkin-Elmer). We defined the absorbance of the reaction without enzyme as 100% inhibitory activity and that of the complete reaction mixture as 0% inhibitory activity. […]

T1 sequence (P49760 whole entry): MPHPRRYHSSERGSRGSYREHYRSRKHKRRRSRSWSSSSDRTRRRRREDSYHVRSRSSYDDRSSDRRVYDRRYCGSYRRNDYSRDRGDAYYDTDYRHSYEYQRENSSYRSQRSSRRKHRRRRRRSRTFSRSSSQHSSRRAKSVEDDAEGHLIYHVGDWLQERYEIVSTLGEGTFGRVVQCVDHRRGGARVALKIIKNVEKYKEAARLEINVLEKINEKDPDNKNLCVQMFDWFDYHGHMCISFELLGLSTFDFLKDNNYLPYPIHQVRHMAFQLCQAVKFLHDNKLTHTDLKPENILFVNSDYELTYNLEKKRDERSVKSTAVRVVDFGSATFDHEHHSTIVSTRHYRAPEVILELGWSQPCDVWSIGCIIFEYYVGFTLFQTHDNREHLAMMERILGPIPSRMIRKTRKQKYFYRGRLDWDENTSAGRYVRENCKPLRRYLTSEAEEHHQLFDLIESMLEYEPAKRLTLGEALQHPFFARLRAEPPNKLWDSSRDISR

SMILES	inhibitory activity against CLK2 among the 28 critical oncology-related kinases (CLK2 [1])	GI50 (HCT-116 cells)	IC50 (SRPK2)	IC50 (CLK2 [2])	effect on nuclear speckles [3]	IC50 (SRPK1)	activity for CLK2 relative to Cpd-1 (CLK2 [2])
CC(C)(CCc1nnn[nH]1)c1ccc(C(=O)Nc2cn3cc(C(F)(F)F)ccc3n2)cc1 [Cpd-1, 4-(2-methyl-4-(1H-tetrazol-5-yl)butan-2-yl)-N-(6-(trifluoromethyl)imidazo[1,2-a]pyridin-2-yl)benzamide]	strongest inhibitory activity against CLK2	70200 nM	75 nM	45 nM	induced enlargement of nuclear speckles	61 nM	
CC(C)(C)c1ccc(C(=O)Nc2cn3cc(-c4cn[nH]c4)ccc3n2)cn1 [Cpd-2, 6-tert-butyl-N-(6-(1H-pyrazol-4-yl)imidazo[1,2-a]pyridin-2-yl)nicotinamide]	strongest inhibitory activity against CLK2	2200 nM	310 nM	2.4 nM	induced enlargement of nuclear speckles	200 nM	10 fold
CC(C)(CO)c1ccc(C(=O)Nc2cn3cc(-c4cn[nH]c4)ccc3n2)cc1 [Cpd-3, 4-(1-hydroxy-2-methylpropan-2-yl)-N-(6-(1H-pyrazol-4-yl)imidazo[1,2-a]pyridin-2-yl)benzamide]	strongest inhibitory activity against CLK2	2500 nM	260 nM	2.1 nM	induced enlargement of nuclear speckles	130 nM	10 fold
